Laboratory results from publication PMC5297880 (Clinical Pharmacology in Drug Development, 2016).
Where two headings read alike, the source gives them in different places.

Columns and labels:
P-gp = settings: read-out: IC50 P-gp inhibition; [3H]digoxin substrate; ref data on file; cited from earlier work
CYP2C8 [1] = settings: CYP2C8-expressing human liver microsomes; cited from earlier work
CYP2B6 [2] = settings: human liver microsomes; S-mephenytoin demethylation; P < .01; ref data on file; cited from earlier work
CYP3A7 = settings: CYP3A7-expressing human liver microsomes; cited from earlier work
UGT1A9 = settings: read-out: IC50 for propofol glucuronidation [UGT1A9]; human liver microsomes; cited from earlier work
CYP2C8 [3] = settings: human liver microsomes; paclitaxel hydroxylation; P < .05; ref data on file; cited from earlier work
CYP2B6 [4] = settings: cultured human hepatocytes; cited from earlier work
OCT2 = settings: [14C]metformin substrate, ref data on file, cited from earlier work
CYP3A4 [5] = settings: cultured human hepatocytes; cited from earlier work
CYP3A4 [6] = settings: CYP3A4-expressing human liver microsomes; cited from earlier work
CYP3A5 = settings: CYP3A5-expressing human liver microsomes; cited from earlier work
[7] = assay type: in vivo, human; settings: for AUCτ geometric least-squares mean ratio (90%CI) / Cmax geometric least-squares mean ratio (90%CI): lopinavir/ritonavir plus isavuconazole to isavuconazole alone; for AUC: AUCτ, day 13 (24 hours), mean (SD)
CYP2B6 [8] = settings: CYP2B6-expressing human liver microsomes; cited from earlier work
[9] = Safety: treatment-emergent adverse events in healthy subjects; assay type: in vivo, human
UGT1A1 = settings: read-out: IC50 for 17β-estradiol 3-glucuronidation [UGT1A1]; human liver microsomes; cited from earlier work
UGT2B7 = settings: read-out: IC50 for morphine 3-glucuronidation [UGT2B7]; human liver microsomes; cited from earlier work
MATE1 = settings: read-out: IC50 MATE1 inhibition; [14C]metformin substrate; ref data on file; cited from earlier work
[10] = assay type: in vivo, human; settings: for decrease in mean AUCτ in presence vs absence of isavuconazole / decrease in mean Cmax in presence vs absence of isavuconazole: Part 2, isavuconazole 200 mg; for AUC / Cmax: both, human, plasma, oral; for AUC: AUCτ, day 13 (12 hours), mean (SD); for Cmax: day 13, mean (SD)
[11] = Part 2, lopinavir/ritonavir plus isavuconazole to lopinavir/ritonavir alone
[12] = Part 2, lopinavir/ritonavir 400/100 mg + isavuconazole 200 mg, n = 16
[13] = Part 2, lopinavir/ritonavir 400/100 mg alone, n = 18

C[C@@H](c1nc(-c2ccc(C#N)cc2)cs1)[C@](O)(Cn1cncn1)c1cc(F)ccc1F [Isavuconazole, isavuconazole]
IC50 (P-gp): 25.7 µM
% remaining (CYP2C8 [1]): > 98 % remaining
correlation (r) of isavuconazole metabolism with CYP2B6 activity (CYP2B6 [2]): 0.65
% remaining (CYP3A7): > 98 % remaining
IC50 (UGT1A9): 19 µM
correlation (r) of isavuconazole metabolism with CYP2C8 activity (CYP2C8 [3]): 0.57
increase of CYP2B6 activity (CYP2B6 [4]): 13.4 fold
increase of CYP2B6 mRNA (CYP2B6 [4]): 11.4 fold
IC50 (OCT2; read-out: IC50 OCT2 inhibition): 1.97 µM
Ki (OCT2; read-out: Ki OCT2 inhibition): 0.69 µM
increase of CYP3A4 activity (CYP3A4 [5]): 3.4 fold
increase of CYP3A4 mRNA (CYP3A4 [5]): 6.4 fold
% remaining (CYP3A4 [6]): 33.8 % remaining
% remaining (CYP3A5): 68.4 % remaining
AUCτ geometric least-squares mean ratio (90%CI) ([7]; Part 1 (isavuconazole 100 mg)): 213 (174, 262) %
Cmax geometric least-squares mean ratio (90%CI) ([7]; Part 1 (isavuconazole 100 mg)): 196 (155, 248) %
increase in mean AUCτ in presence vs absence of lopinavir/ritonavir ([7]; Part 1, isavuconazole 100 mg): 113%
increase in mean Cmax in presence vs absence of lopinavir/ritonavir ([7]; Part 1, isavuconazole 100 mg): 96%
AUCτ geometric least-squares mean ratio (90%CI) ([7]; Part 2 (isavuconazole 200 mg)): 196 (164, 235) %
Cmax geometric least-squares mean ratio (90%CI) ([7]; Part 2 (isavuconazole 200 mg)): 174 (146, 208) %
increase in mean AUCτ in presence vs absence of lopinavir/ritonavir ([7]; Part 2, isavuconazole 200 mg): 96%
increase in mean Cmax in presence vs absence of lopinavir/ritonavir ([7]; Part 2, isavuconazole 200 mg): 74%
Tmax ([7]; Part 2, isavuconazole 200 mg + lopinavir/ritonavir, day 13, median (range)): 3.0 (1.0‐4.0) hours
Tmax ([7]; both, human, plasma, oral, 100 mg): 3 h
Tmax ([7]; both, human, plasma, oral, 200 mg): 3 h
AUC ([7]; both, human, plasma, oral, Part 1, isavuconazole 100 mg + lopinavir/ritonavir 400/100 mg BID, n = 6): 116000 ng·h/mL
AUC ([7]; both, human, plasma, oral, Part 2, isavuconazole 200 mg + lopinavir/ritonavir 400/100 mg BID, n = 16): 222000 ng·h/mL
% remaining (CYP2B6 [8]): > 98 % remaining
subjects who experienced TEAEs ([9]; Part 1 (isavuconazole 100 mg), all mild): 2 (33.3%) n (%)
TEAEs overall, subjects ([9]; Part 2): 11 (61.1%) n (%)
subjects with TEAEs in system organ class gastrointestinal disorders ([9]; Part 2, text): 16.7%
IC50 (UGT1A1): 9 µM
IC50 (UGT2B7): 44 µM
IC50 (MATE1): 6.31 µM

Cc1cccc(C)c1OCC(=O)N[C@@H](Cc1ccccc1)[C@@H](O)C[C@H](Cc1ccccc1)NC(=O)[C@H](C(C)C)N1CCCNC1=O [Lopinavir, lopinavir]
decrease in mean AUCτ in presence vs absence of isavuconazole [10]: 27%
decrease in mean Cmax in presence vs absence of isavuconazole [10]: 23%
AUCτ geometric least-squares mean ratio (90%CI) [10, 11]: 73 (56, 96) %
Cmax geometric least-squares mean ratio (90%CI) [10, 11]: 77 (62, 95) %
AUC [10, 12]: 73300 ng·h/mL
AUC [10, 13]: 91000 ng·h/mL

CC(C)c1nc(CN(C)C(=O)N[C@H](C(=O)N[C@@H](Cc2ccccc2)C[C@H](O)[C@H](Cc2ccccc2)NC(=O)OCc2cncs2)C(C)C)cs1 [Ritonavir, ritonavir]
decrease in mean AUCτ in presence vs absence of isavuconazole [10]: 31%
decrease in mean Cmax in presence vs absence of isavuconazole [10]: 33%
AUC [10, 12]: 4000 ng·h/mL
AUC [10, 13]: 5500 ng·h/mL
Cmax ([10]; Part 2, lopinavir/ritonavir + isavuconazole): 800 ng/mL
Cmax ([10]; Part 2, lopinavir/ritonavir alone): 1200 ng/mL
